Reference: patent US10562842B2, “Use of polyaminoisoprenyl derivatives in antibiotic or antiseptic treatment” (UNIVERSITE D'AIX-MARSEILLE, priority 2011, dated 2020)

Columns and labels:
[1] = Tolerance in mice, intraperitoneal route; format: in vivo; conditions: day 2, Compound 5 8.8 mg/kg, 8 1.46 mg/kg, 11 0.45 mg/kg, 14 0.35 mg/kg, 12 6.3 mg/kg
Description: Mice were administered with increasing doses of test compounds by intraperitoneal route.
The mice were sacrificed on day 2 after the injection of the test compound and autopsied. No morphological anomaly was observed. Liver, lung, kidney and intestine of each mouse were fixed and analysed.

BN10055ΔacrB = assay: MIC of antibiotics ± test compound (MIC ratio), micro-broth dilution; format: cell-based, Salmonella enterica serovar Typhimurium; conditions: compound at MIC/4; for MIC ratio Chloramphenicol S. enterica BN1005ΔacrB / MIC ratio Doxycycline S. enterica BN1005ΔacrB / MIC ratio Nalidixic acid S. enterica BN1005ΔacrB: Example 4
Description: (§1) The Enterobacter aerogenes Ea289 strain is a Kans derivative of the MDR clinical isolate Ea27, the acrB mutant, EaEP294, was constructed from Ea289. Multidrug-resistant Salmonella enterica serovar Typhimurium DT104 strains (BN10055) was isolated from cattle in France, the isogenic acrB derivative mutant, BN10055ΔacrB, was constructed from BN10055. Strains were maintained at −80° C. in 25% (v/v) glycerol for cryoprotection. Bacteria were routinely grown in Mueller-Hinton (MH) broth at 37° C.
(§2) Susceptibilities to antibiotics and compounds were determined in microplates by broth dilution method, as previously described. Minimal Inhibitory Concentrations (MICs) were determined with an inoculum of 10^6 CFU in 200 μL of MH broth containing two-fold serial dilutions of each drug. […] All MIC determinations were repeated at least three times in independent experiments.
(§3) […] All MIC determinations were repeated at least three times in independent experiments. The MIC ratio corresponds to the ratio of the MIC of an antibiotic alone to the MIC of the same antibiotic in the presence of the tested compound (at MIC/4).
(§4) For reminder, the MIC ratio corresponds to the ratio of the MIC of the assessed antibiotic alone to the MIC of the same antibiotic in the presence of the tested compound (at MIC/4).

[2] = system: Salmonella Thyphimurium MDR BN10055; assay: as above; format: cell-based, Salmonella enterica serovar Typhimurium; conditions: compound at MIC/4; for MIC ratio (*) on BN10055 Chl: chloramphenicol; for MIC ratio Chloramphenicol S. enterica BN10055 / MIC ratio Doxycycline S. enterica BN10055 / MIC ratio Nalidixic acid S. enterica BN10055: Example 4; for MIC ratio (*) on BN10055 Dox: doxycycline; for MIC ratio (*) on BN10055 Nal: nalidixic acid
Description: as §1, §2, §3, §4

[3] = system: strain IV2570533 - Escherichia coli cattle (resistant); assay: MIC of antibiotics in the presence and absence of test compound, veterinary strains; format: cell-based; conditions: compound at the Concentration (μM) (0.896-12.6)
Description: (§5) For each strain and each antibiotic, the MICs were determined in the presence and in the absence of one test compound.

[4] = system: strain IV2570060 - Escherichia coli cattle (sensible); assay: as above; format: cell-based; conditions: compound at the Concentration (μM) (4-50)
Description: as §5

[5] = system: strain IV2571418 - Escherichia coli pig (resistant); assay: as above; format: cell-based; design: MIC for strain IV2571418, Doxycycline in the presence of test compound: unit not given beside the values; conditions: compound at the Concentration (μM) (4-50)
Description: as §5

CHO-K1 cells = format: cell-based; conditions: for proliferation index, all the tested concentrations: Chinese hamster, 3 h
Description: Genotoxicity of compounds 11 and 14 was assessed by micronucleus test. The micronucleus test was performed on CHO-K1 cells with and without metabolic activation. Metabolic activation is obtained by adding in the medium S9 mix. S9 mix contains NADP, G6P and S9 fraction which is a crude preparation of enzymes obtained from the homogenized liver of rats. Briefly, CHO-K1 cells were cultured in Mc Coy's medium 5A and then transferred in the wells of Lab-Tek chamber slides at a concentration of 100 000 cells/ml. The cells were incubated during 24 h at 37° C. at CO2 (5%). The culture medium was replaced by Mc Coy's 5A medium comprising 10% per volume of S9 mix. The test compounds were added at increased concentrations. After being incubated during three hours at 37° C., the cells were rinsed with phosphate buffer (PBS) and then cultured in Mac Coy's 5A medium containing 3 μg/ml cytochalasine B. After an incubation of 21 hours at 37° C., the cells were rinsed, fixed with methanol and coloured with Giemsa 10% during 20 minutes. For each set of assays, the positive control was 0.05 μg/ml of mitomycine C or 5 μg/ml of benzo-a-pyrene. The negative control was culture medium containing 5% of PBS. The stained cells were then analysed by microscopy for the presence of micronuclei. The proliferation index was determined as follows: IP=(2×BIN+MON)/500. MON: number of mononucleated cells and BIN: number of binucleated cells.

[6] = system: Enterobacter aerogenes MDR Ea289; assay: MIC of antibiotics ± test compound (MIC ratio), micro-broth dilution; format: cell-based; conditions: for MIC ratio Chloramphenicol E. aerogenes Ea289 / MIC ratio Doxycycline E. aerogenes Ea289 / MIC ratio Nalidixic acid E. aerogenes Ea289: Example 4
Description: The process consists of treating the MDR bacteria with the compounds of the invention in the presence of antibiotics.
as §2
The MICs of chloramphenicol±test compounds (MIC/4) were determined by the micro-broth dilution method (9). All MIC determinations were repeated at least three times in independent experiments. The MIC ratio corresponds to the ratio of the MIC of an antibiotic alone to the MIC of the same antibiotic in the presence of the tested compound (at MIC/4).
The compounds listed in Table 2 were tested for their ability to decrease the chloramphenicol MIC of Ea289, an Enterobacter aerogenes MDR strain (1). Each compound was first tested at MIC/4. […] All MIC determinations were repeated at least three times in independent experiments.
as §4

[7] = system: strain IV2571223 - Escherichia coli pig (sensible); assay: MIC of antibiotics in the presence and absence of test compound, veterinary strains; format: cell-based; design: MIC for strain IV2571223, Doxycycline in the presence of test compound: unit not given beside the values; conditions: compound at the Concentration (μM) (2-50)
Description: as §5

CHO cells = assay: Toxicity on CHO cultured cells; format: cell-based; conditions: Cricetulus griseus; killing of 50% of the CHO cells after 24 hours of incubation
Description: The toxicity of each compound was determined on CHO cultured cells. Incubation of CHO cells was performed with serial dilution of compounds. The compounds are either solubilized in DMSO or in PBS. The IC50 corresponds to the concentration of compounds leading to a killing of 50% of the CHO cells after 24 hours of incubation.

[8] = system: Pseudomonas and Actinebacter strains; assay: MIC ratio, several strains; format: cell-based
Source text: as §4

[9] = chloramphenicol, compound at MIC/4, Set 2

Structure (SMILES) | tissue anomaly (liver, lung, kidney, intestine) [1] | MIC ratio Chloramphenicol S. enterica BN1005ΔacrB (BN10055ΔacrB) | MIC ratio Doxycycline S. enterica BN1005ΔacrB (BN10055ΔacrB) | MIC ratio Nalidixic acid S. enterica BN1005ΔacrB (BN10055ΔacrB) | MIC ratio (*) on BN10055 Chl ([2]; Set 2) | MIC ratio Chloramphenicol S. enterica BN10055 [2] | MIC ratio Doxycycline S. enterica BN10055 [2] | MIC ratio Nalidixic acid S. enterica BN10055 [2] | MIC ratio (*) on BN10055 Dox ([2]; Set 2) | MIC ratio (*) on BN10055 Nal ([2]; Set 2) | MIC for strain IV2570533, Doxycycline in the presence of test compound [3] | MIC for strain IV2570533, Tylosine in the presence of test compound [3] | MIC for strain IV2570060, Doxycycline in the presence of test compound [4] | MIC for strain IV2570060, Tylosine in the presence of test compound [4] | MIC for strain IV2571418, Doxycycline in the presence of test compound [5] | MIC for strain IV2571418, Tylosine in the presence of test compound [5] | genotoxicity in vitro (micronucleus test) (CHO-K1 cells) | proliferation index, all the tested concentrations (CHO-K1 cells) | MIC ratio (*) on Ea289 Chl [6, 9] | MIC ratio Chloramphenicol E. aerogenes Ea289 ([6]; compound at MIC/4) | further results
CC(C)=CCCC(C)=CCNCCCN(CCCN)CCCN (racemic) [Compound 11, {3-[Bis-(3-amino-propyl)-amino]-propyl}-(3,7-dimethyl-octa-2,6-dienyl)-amine] | no significant tissue anomaly | 2 | 2 | 2 | 16 | 16 | 16 | 128 | 16 | 128 | 1 | 4 | 0.0625 | 4 | 2 | 4 | not genotoxic in vitro | higher than 50% | 8 | 8 | MIC ratio(*) on BN10055ΔacrB Chl (BN10055ΔacrB; chloramphenicol, Set 1): 2; MIC ratio(*) on BN10055ΔacrB Ery (BN10055ΔacrB; erythromycin, Set 1): 8; MIC ratio(*) on BN10055ΔacrB Nal (BN10055ΔacrB; nalidixic acid, Set 1): 2; MIC ratio (*) on BN10055 Chl ([2]; Set 1): 16; MIC ratio(*) on BN10055 Ery ([2]; erythromycin, Set 1): 8; MIC ratio (*) on BN10055 Nal ([2]; Set 1): 128; Effective concentration (mM) for a MIC ratio of chloramphenicol ≥ 8 on Ea289 ([6]; chloramphenicol): 0.0078 mM; efficient concentration, times lower than the control PAβN ([6]; chloramphenicol MIC ratio of 8 on Ea289): about 4.9 times; activity, effective concentration compared with PAβN to reach a MIC ratio of 8 ([6]; chloramphenicol on Ea289): strong activity; MIC ratio (*) on Ea289 Chl ([6]; chloramphenicol, compound at MIC/4, Set 1): 16; MIC ratio Doxycycline E. aerogenes Ea289 ([6]; compound at MIC/4): 32; MIC ratio Nalidixic acid E. aerogenes Ea289 ([6]; compound at MIC/4): 8; MIC ratio(*) on Ea289 Ery ([6]; erythromycin, compound at MIC/4, Set 1): 32; MIC ratio (*) on Ea289 Nal ([6]; nalidixic acid, compound at MIC/4, Set 1): 8; MIC for strain IV2571223, Doxycycline in the presence of test compound [7]: 0.03125; MIC for strain IV2571223, Tylosine in the presence of test compound [7]: 16; IC50 (CHO cells): 0.282 mM; sensitivity of strains to chloramphenicol ([8]; Pseudomonas and Actinebacter strains): greatly increased the sensitivity; sensitivity to tetracycline, Pseudomonas and Actinebacter strains ([8]; tetracycline): increased the sensitivity
CC(C)=CCC/C(C)=C/CC/C(C)=C/CNCCCN(C)CCCN [Compound 14, {3-[(3-Amino-propyl)-methyl-amino]-propyl}-((2E,6E)-3,7,11-trimethyl-dodeca-2,6,10-trienyl)-amine] | no significant tissue anomaly | 2 | 2 | 4 | 16 | 16 | 64 | 128 | 64 | 128 | 1 | 8 | 0.0625 | 8 | 2 | 4 | not genotoxic in vitro | higher than 50% | 8 | 8 | MIC ratio Doxycycline E. aerogenes Ea289 ([6]; compound at MIC/4): 64; MIC ratio Nalidixic acid E. aerogenes Ea289 ([6]; compound at MIC/4): 32; MIC for strain IV2571223, Doxycycline in the presence of test compound [7]: 0.03125; MIC for strain IV2571223, Tylosine in the presence of test compound [7]: 2
